Measured values published in patent US10517889B2, “Modulators of SMAD7 expression” (Ionis Pharmaceuticals, Inc., priority 2017, dated 2019).
“And” between values parts separate entries of the source, which are not always exact repeats. Equal values may be shown once. Strand notation (5' to 3'): a small letter for the sugar, then the base; units joined by * are phosphorothioate-linked, units joined directly phosphodiester-linked; [ ] holds rarer units or linkages, { } end groups; capitals alone tell only the bases. k = constrained ethyl (cEt); [5mC] = 5-methylcytosine; d = 2'-deoxy (DNA)

Key:
[1] = test system: human SMAD7 mRNA; test: Dose-dependent inhibition of human SMAD7 mRNA expression in Hep3B cells (Example 3, Study 1 and 2); type: cell-based; conditions: electroporation; for % inhibition of SMAD7 mRNA expression: approximately 16 hours; for IC50: Study 2 (740-20000 nM)
Procedure: The antisense oligonucleotides were tested in a series of experiments that had similar culture conditions as described below.
(§1) Cells were plated at a density of 20,000 cells per well and transfected using electroporation with 0.31 μM, 1.25 μM, 5.00 μM, or 20.00 μM concentrations of antisense oligonucleotide, as specified in the Tables below. ION 483663 was included in the assays for comparison. After a treatment period of approximately 16 hours, RNA was isolated from the cells and SMAD7 mRNA levels were measured by quantitative real-time PCR. Primer probe set RTS5062 was used to measure human SMAD7 mRNA levels. SMAD7 mRNA levels were adjusted according to total RNA content, as measured by RIBOGREEN®. Results are presented as percent inhibition of SMAD7 mRNA expression, relative to untreated control cells.
The half maximal inhibitory concentration (IC50) of each oligonucleotide is also presented.
as §1, with “0.74” for “0.31”, “2.22” for “1.25”, “6.67” for “5.00”, “below.” for “below. ION 483663 was included in the assays for comparison.”

[2] = test system: human SMAD7 mRNA; test: Antisense inhibition of human SMAD7 mRNA expression in Hep3B cells by 3-10-3 cEt gapmers, 10,000 nM, electroporation (Example 2); type: cell-based; conditions: approximately 24 hours
In short: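 qRT-PCR (RTS5062) of SMAD7 mRNA, normalised to RIBOGREEN total RNA, gave percent inhibition relative to untreated controls. Hep3B cells at 20,000 per well received 10,000 nM oligonucleotide by electroporation, with ~24 h treatment.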

[3] = 740 nM, Study 2, relative to untreated control cells
[4] = Hep3B cells, electroporation with 10,000 nM antisense oligonucleotide, primer probe set RTS5062, relative to untreated control cells
[5] = SMAD7 mRNA, Hep3B cells, 10,000 nM antisense oligonucleotide, electroporation, primer probe set RTS5062, relative to untreated control cells
[6] = Hep3B cells, 10,000 nM antisense oligonucleotide, electroporation, RT-PCR primer probe set RTS5062, relative to untreated control cells
[7] = Hep3B cells, electroporation with 10,000 nM antisense oligonucleotide, RTS5062, percent inhibition of SMAD7 mRNA relative to untreated control cells

| Substance | % inhibition of SMAD7 mRNA expression [1, 3] | % inhibition of SMAD7 mRNA expression ([1]; 2220 nM, Study 2) | % inhibition of SMAD7 mRNA expression ([1]; 6670.0 nM, Study 2) | % inhibition of SMAD7 mRNA expression ([1]; 20000.0 nM, Study 2) | IC50 [1] | % Inhibition ([2]; Hep3B cells, electroporation with 10,000 nM antisense oligonucleotide, SMAD7 mRNA by RT-PCR (RTS5062), relative to untreated control cells) | % inhibition of SMAD7 mRNA expression [2, 4] | % Inhibition [2, 5] | % Inhibition [2, 6] | % Inhibition [2, 4] | % Inhibition [2, 7] | % inhibition of SMAD7 mRNA expression ([2]; Hep3B cells, electroporation, 10,000 nM antisense oligonucleotide, RTS5062, relative to untreated control cells) |
| --- | --- | --- | --- | --- | --- | --- | --- | --- | --- | --- | --- | --- |
| 798733 (antisense k[5mC]*kG*k[5mC]*dG*dG*d[5mC]*dT*dG*dG*d[5mC]*dG*dG*dG*kT*kG*kG) [compound 798733] | 58% | 84% | 88% | 95% | 4 µM | 72% |  |  |  |  |  |  |
| 798764 (kA*k[5mC]*kT*dT*dT*dG*d[5mC]*dA*d[5mC]*dA*dG*d[5mC]*dA*kG*kG*kA; antisense) [compound 798764] |  |  | 57% and 72% and 54% | 93% and 87% and 65% and 83% | 1 µM |  | 69% | 75% |  |  |  |  |
| 798823 (kA*k[5mC]*kA*dG*dT*dA*dG*dA*dG*d[5mC]*d[5mC]*dT*d[5mC]*k[5mC]*k[5mC]*k[5mC]; antisense) [compound 798823] | 27% | 27% | 63% | 70% | > 20 µM |  |  |  | 74% |  |  |  |
| 798824 (kG*kA*k[5mC]*dA*d[5mC]*dA*dG*dT*dA*dG*dA*dG*d[5mC]*k[5mC]*kT*k[5mC]; antisense) [compound 798824] | 0% | 0% | 7% | 42% | 4 µM |  |  |  | 74% |  |  |  |
| 798931 (antisense kG*kA*kG*dG*dA*dA*dA*dA*dT*dA*dT*dT*dA*kG*k[5mC]*kA) [compound 798931] | 0% | 43% | 72% | 83% | 7 µM |  |  |  | 69% |  |  |  |
| 798954 (antisense kA*kT*kA*dA*dG*d[5mC]*dT*dA*dT*dT*dT*d[5mC]*dT*k[5mC]*kA*kA) [compound 798954] | 4% | 27% | 49% | 70% | > 20 µM |  |  |  |  | 54% |  |  |
| 798987 (antisense kA*kA*kT*dG*dA*dT*dG*dA*d[5mC]*d[5mC]*dG*d[5mC]*d[5mC]*k[5mC]*k[5mC]*k[5mC]) [compound 798987] | 0% | 0% | 8% | 47% | 4 µM |  | 84% |  |  |  |  |  |
| 799067 (antisense kG*kG*kA*dT*dG*dA*dA*dA*dA*dT*dA*dA*dT*kT*kG*kG) [compound 799067] | 5% | 55% | 63% | 78% | 9 µM |  | 74% |  |  |  |  |  |
| 799070 (antisense kA*kG*kG*dG*dA*dA*dT*dA*dA*dG*dA*d[5mC]*dA*kA*kG*kG) [compound 799070] | 0% | 44% | 42% | 60% | 4 µM |  | 67% |  |  |  |  |  |
| 799089 (antisense kA*kG*k[5mC]*dA*dA*dT*dA*d[5mC]*dT*dG*dT*dG*dA*kG*kG*kG) [compound 799089] | 12% | 40% | 61% | 76% | 7 µM |  | 60% |  |  |  |  |  |
| 799118 (antisense kA*kG*kA*dG*d[5mC]*dT*dT*dA*dA*d[5mC]*dA*d[5mC]*dA*k[5mC]*kA*kG) [compound 799118] | 0% | 16% | 50% | 75% | < 0.7 µM |  |  |  |  | 71% |  |  |
| 799143 (antisense kT*kG*kG*dG*dT*dT*dA*dT*dG*dA*d[5mC]*dG*dG*kA*k[5mC]*k[5mC]) [compound 799143] | 87% | 93% | 95% | 96% | 2 µM |  | 66% | 61% |  |  |  |  |
| 799159 (antisense kG*kT*kG*dT*dA*dT*dG*dA*dG*dT*dT*dG*dT*kA*kG*kA) [compound 799159] | 43% | 55% | 78% | 90% | 19 µM |  |  |  |  | 56% |  |  |
| 799168 (antisense kG*k[5mC]*kT*dA*dA*dG*dA*dA*d[5mC]*dA*dG*dT*dG*kT*k[5mC]*kG) [compound 799168] | 15% | 13% | 36% | 54% | 5 µM |  | 75% |  |  |  |  |  |
| 799312 (antisense k[5mC]*kA*kT*d[5mC]*dT*dT*dT*dA*dA*dG*d[5mC]*dA*d[5mC]*kG*k[5mC]*kT) [compound 799312] | 23% | 46% | 49% | 69% | 4 µM |  |  |  |  |  | 66% |  |
| 799318 (antisense kG*kT*kG*dG*dA*dT*dT*dT*dG*dA*dA*dA*dA*kG*kG*kG) [compound 799318] | 12% | 40% | 70% | 75% | 11 µM |  |  |  |  |  | 58% |  |
| 799321 (antisense kA*kT*k[5mC]*dT*dG*dG*dA*d[5mC]*dA*dG*dT*d[5mC]*dT*kG*k[5mC]*kT) [compound 799321] | 0% | 5% | 36% | 67% | < 0.7 µM |  |  |  |  |  |  | 93% |
| 799322 (antisense kG*kG*kA*dG*dG*dG*dT*dA*dT*dG*d[5mC]*dA*d[5mC]*kA*k[5mC]*kT) [compound 799322] | 89% | 90% | 96% | 96% | 2 µM |  | 83% |  |  |  |  |  |
